Measured values: patent publication US7517652B2, “Methods of diagnosing tumors using the G-protein coupled receptor (GPCR), RAI-3” (Bristol-Myers Squibb Company, priority 2002, dated 2009)
Entries after “also recorded” stand apart in the source; their conditions may differ. d = 2'-deoxy (DNA); r = 2'-OH (RNA)

Columns and labels:
[1] = system: RAI-3 mRNA; assay: RAI-3 mRNA by real-time PCR after treatment of cells with ATRA; assay type: cell-based, human; conditions: 24 hours
Method: 1×10^6 cells of each of the HEK 293, H292 and BEAS-2B cell lines were seeded into two (replicate) 100 mM cell culture dishes containing 20 ml of RPMI complete medium which contained L-glutamine, 10% fetal bovine serum and 1% Penicillin-Streptomycin (Gibco/BRL). To one 100 mM dish, 0.2 μl of DMSO were added. To the other 100 mM dish, 0.2 μl of 10 mM ATRA (Sigma R-2625, St. […] After 24 hours at 37° C. and 5% CO2, cells were lysed with Buffer RLT (Qiagen, Hilden, Germany) and total RNA was harvested pursuant to the Rneasy Midi Kit protocol (Qiagen, Hilden, Germany). RAI-3 messenger RNA levels were measured by Real-time PCR as described below in Example 1(N).
SYBR Green PCR amplification was performed on an ABI PRISM 7700 Sequence Detection System (PE Applied Biosystems, Foster City, Calif.), and the reaction was carried out using SYBR Green PCR Core reagents (PE Applied Biosystems). Real time PCR was carried out at 40 cycles with the following parameters: 95° C. for 15 seconds and 60° C. for 60 seconds, with a pre-incubation period of 50° C. for 2 minutes, followed by 95° C. for 10 minutes. All amplification was normalized to β-actin gene amplification in the linear portion of the amplification curves. Data were then expressed as a fold increase over a reference tissue or cell type.

[2] = system: muc5AC protein; assay: muc5AC ELISA of supernatants of H292 cells exposed to cigarette smoke-bubbled media; assay type: cell-based, human; conditions: transfected H292 cells, CS-10 for 72 hours, triplicate; listed as RAI-3 siRNA 1864+1865
Method: At 24 hours post siRNA transfection, the media was changed to serum-free RPMI media containing 20 mM Glutamine and 1% Penicillin-Streptomycin and incubated at 37° C., 5% CO2, for 24 hours. At 48 hours post transfection, the serum-free RPMI media was removed from the cells and replaced with 1.0 ml of cigarette smoke-bubbled medium (i.e., CS-10, the equivalent of 10 cigarettes per 500 ml of cell culture medium) for 72 hours (96 hours post-transfection) or control. At 72 hours (96 hours post-transfection), 100 ul×3 of supernatent from each well in the 24-well plate was transferred to 96-well plate for ELISA analysis.
A muc5AC coating antibody, Gastric Mucin Ab-1 45M1 (NeoMarkers, Fremont, Calif.) was diluted 1:1000 to 1 ug/ml final in 50 mM NaHCO3 pH 9 and coated onto a standard 96-well ELISA plate overnight at room temperature with rotating. The next day the plate was washed three times with 1×PBS/0.05% Tween 20 (PBS-T) and blocked with 200 ul of blocking buffer, 1×PBS/1% BSA final (30% solution, Sigma-Aldrich Co. Saint Louis, Mo.). […] The next day the wells were washed three times with PBS-T. Muc5AC protein in the supernatent was detected with Peroxidase-Labeled Lectin from Glycine Max (Sigma-Aldrich, St. Louis, Mo.) diluted to 1ug/ml in 1×PBS/1% BSA final. […] Color reactions were stopped with 100 μl/well 1 N. H2SO4 and the absorbency at 450 nm-650 nm was measured.

Compound | RAI-3 mRNA levels ([1]; H292 cells (high basal level of RAI-3 expression)) | RAI-3 mRNA levels ([1]; HEK 293, BEAS-2B and H292 cells, ATRA 1 μM) | average ELISA signal, muc5AC protein in the supernatant [2]
CC1=C(/C=C/C(C)=C/C=C/C(C)=C/C(=O)O)C(C)(C)CCC1 [ATRA, all-trans retinoic acid] | modest, but measurable increase | increase; also recorded: induced | –
RAI-3 siRNA reagent 1864+1865: annealed double stranded siRNA r(GGUGCAGGACUCCAACAGG)d(TT) and r(CCUGUUGGAGUCCUGCACC)d(TT), SEQ ID NO:94 and 95 (chain 1 GGUGCAGGACUCCAACAGGTT; chain 2 CCUGUUGGAGUCCUGCACCTT; sugars from the 5' end r19 d2, backbone not given here) | – | – | significantly reduced
